Patent US20220380829A1, “Method of Diagonosizing Pathogens and their Antimicrobial Susceptibility” (HANGZHOU DIAN MEDICAL LABORATORY CO., LTD., priority 2019, published 2022)

Columns and labels:
Assay type in all cases: cell-based
[1] = system: Klebsiella pneumoniae; test: VITEK2 Compact AST (AST-GN13/GN334 cards), gold standard culture-based AST
Text: Step 1. Sample collection and drug susceptibility verification: 240 clinical Klebsiella pneumoniae isolates were collected from 23 hospitals across china in a period between January 2018 and March 2019.

[2] = system: Staphylococcus aureus; test: VITEK2 Compact AST (AST-P639 card), gold standard culture-based AST; conditions: for Resistance profiles by VITEK2: R: number of resistant among 22 blinds; for Resistance profiles by VITEK2: S: number of susceptible among 22 blinds
Method: Step 1. Sample collection and drug susceptibility verification: 160 clinical Staphylococcus aureus isolates were collected from 20 hospitals across china in a period between June 2018 and June 2019. All isolates were tested for drug susceptibility using bioMérieux Vitek2 Compact System and AST-P639 card, and specifically, and the results were used as the gold standard (culture-based AST).

[3] = system: Enterococcus faecalis; test: VITEK2 Compact AST (AST-P639 cards), gold standard culture-based AST
[4] = system: Streptococcus pneumoniae; test: VITEK2 Compact AST (AST-GP68 cards) with penicillin disc diffusion, gold standard culture-based AST
Method: (§1) Step 1. Drug susceptibility verification: The Streptococcus pneumoniae isolates were tested for drug susceptibility using bioMérieux Vitek2 Compact System and AST-GP68 cards, and specifically, the susceptibility of penicillin was double checked by disc diffusion method (OXOID, CT0043B), and the combined results were used as the gold standard (culture-based AST).
as §1, with “Sample collection and drug” for “Drug”, “48 clinical” for “The”, “pneumoniae isolates were collected from 18 hospitals across china in a period between May 2017 and October 2019. All” for “pneumoniae”, “card,” for “cards,”

[5] = Resistance profile classification A
[6] = Resistance profile classification B
[7] = Resistance profile classification C
[8] = Resistance profile classification D
[9] = Resistance profile classification G
[10] = Resistance profile classification H
[11] = Resistance profile classification I
[12] = Resistance profile classification J
[13] = Resistance profile classification S

Gentamicin
Resistance profiles by VITEK2: R ([1]; number of resistant among 24 blinds): 12 | Resistance profiles by VITEK2: S ([1]; number of susceptible among 24 blinds): 12 | Resistance profiles by VITEK2: R [2]: 7 | Resistance profiles by VITEK2: S [2]: 15

Teicoplanin
Resistance profiles by VITEK2: R [2]: 0 | Resistance profiles by VITEK2: S [2]: 22

penicillin
Susceptibility of Emterococcus faecalis to 11 antibacterial drugs [3, 5]: R | Susceptibility of Emterococcus faecalis to 11 antibacterial drugs [3, 6]: R | Susceptibility of Emterococcus faecalis to 11 antibacterial drugs [3, 7]: R | Susceptibility of Emterococcus faecalis to 11 antibacterial drugs [3, 8]: R | Susceptibility of Emterococcus faecalis to 11 antibacterial drugs ([3]; Resistance profile classification F (first line so labelled, r12)): R | Susceptibility of Emterococcus faecalis to 11 antibacterial drugs ([3]; Resistance profile classification F (second line so labelled, r13)): R | Susceptibility of Emterococcus faecalis to 11 antibacterial drugs [3, 9]: S | Susceptibility of Emterococcus faecalis to 11 antibacterial drugs [3, 10]: S | Susceptibility of Emterococcus faecalis to 11 antibacterial drugs [3, 11]: S | Susceptibility of Emterococcus faecalis to 11 antibacterial drugs [3, 12]: S | Susceptibility of Emterococcus faecalis to 11 antibacterial drugs ([3]; Resistance profile classification K): S | Susceptibility of Emterococcus faecalis to 11 antibacterial drugs ([3]; Resistance profile classification L): S | Susceptibility of Emterococcus faecalis to 11 antibacterial drugs ([3]; Resistance profile classification M): S | Susceptibility of Emterococcus faecalis to 11 antibacterial drugs [3, 13]: S | Blind 1 by AST ([4]; Blind 1): S | Susceptibility of Streptococcus pneumoniae to 14 antibacterial drugs [4, 5]: R | Susceptibility of Streptococcus pneumoniae to 14 antibacterial drugs [4, 6]: R | Susceptibility of Streptococcus pneumoniae to 14 antibacterial drugs [4, 7]: R | Susceptibility of Streptococcus pneumoniae to 14 antibacterial drugs [4, 8]: R | Susceptibility of Streptococcus pneumoniae to 14 antibacterial drugs ([4]; Resistance profile classification E): R | Susceptibility of Streptococcus pneumoniae to 14 antibacterial drugs ([4]; Resistance profile classification F): R | Susceptibility of Streptococcus pneumoniae to 14 antibacterial drugs [4, 9]: S | Susceptibility of Streptococcus pneumoniae to 14 antibacterial drugs [4, 10]: S | Susceptibility of Streptococcus pneumoniae to 14 antibacterial drugs [4, 11]: S | Susceptibility of Streptococcus pneumoniae to 14 antibacterial drugs [4, 12]: S | Susceptibility of Streptococcus pneumoniae to 14 antibacterial drugs [4, 13]: S | blind 2 by AST ([4]; blind 2): R | Resistance profiles by VITEK2: R [2]: 20 | Resistance profiles by VITEK2: S [2]: 2
